Numbered stars: 1 amine (or outer) side, 2 acyl side, 3 side chain; on linkers, the order of the positions; unused ones are H or OH. Square brackets hold non-standard residues; d marks the D form. Side chains are listed from the residue outwards. Peptide text beside a SMILES is read from it. * marks the point of attachment. C18 diacid = O=C(O)CCCCCCCCCCCCCCCCC(=O)*; γGlu = O=C(O)[C@H](CCC(=O)[*:2])N[*:1]; AEEA = NCCOCCOCC(=O)O; Aib = CC(C)(N)C(=O)O

In patent US12257287B2, “Glucagon-derived peptide and use thereof” (Tianjin Institute of Pharmaceutical Research Co., Ltd., priority 2018, dated 2025) one finds EC50 data, which are given here for three compounds.

The assay deals with T1, GC receptor (Homo sapiens, UniProt P47871).
T1 construct: expressed in transfected cells; host or cells: HEK293 cells
In words: GC receptor mediated cAMP production in vitro (HEK293 cells transfected with GC receptor). The note with it: 20 min at 37° C., read-out: GCGR (nM EC50). The assay is classed as cell-based. The source says:
The medium was removed, the cells were lysed, and cAMP values were detected referring to the detection method described for the assay kit.
In general terms: Changes in cAMP serve as a functional read-out for many G protein-coupled receptors.

T1 sequence (P47871 26-477): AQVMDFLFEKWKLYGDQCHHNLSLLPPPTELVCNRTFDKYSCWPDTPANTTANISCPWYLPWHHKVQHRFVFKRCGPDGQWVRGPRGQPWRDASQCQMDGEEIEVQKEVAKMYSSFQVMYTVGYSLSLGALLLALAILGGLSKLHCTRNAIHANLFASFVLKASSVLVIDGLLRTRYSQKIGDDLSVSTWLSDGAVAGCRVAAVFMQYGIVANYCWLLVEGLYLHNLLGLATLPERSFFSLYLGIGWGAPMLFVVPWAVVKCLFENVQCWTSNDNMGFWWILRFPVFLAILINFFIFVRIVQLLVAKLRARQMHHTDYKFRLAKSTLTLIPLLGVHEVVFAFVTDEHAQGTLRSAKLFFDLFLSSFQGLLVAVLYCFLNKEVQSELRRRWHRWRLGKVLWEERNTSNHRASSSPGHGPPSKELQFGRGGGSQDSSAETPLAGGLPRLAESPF

One may read the EC50 as the concentration needed to bring the measured effect to its halfway point. For `CCCCCCCCCCCCCCCC(=O)N[C@@H](CCC(=O)N[C@@H](CCC(=O)NCCCC[C@H](NC(=O)[C@H](C)NC(=O)[C@H](C)NC(=O)[C@H](CCCNC(=N)N)NC(=O)[C@H](CCC(=O)O)NC(=O)[C@H](CC(=O)O)NC(=O)[C@H](CC(C)C)NC(=O)[C@H](Cc1ccc(O)cc1)NC(=O)[C@H](CCCCN)NC(=O)[C@H](CO)NC(=O)[C@H](Cc1ccc(O)cc1)NC(=O)[C@H](CC(=O)O)NC(=O)[C@H](CO)NC(=O)[C@@H](NC(=O)[C@H](Cc1ccccc1)NC(=O)[C@@H](NC(=O)CNC(=O)[C@H](CCC(N)=O)NC(=O)C(C)(C)NC(=O)[C@@H](N)Cc1c[nH]cn1)[C@@H](C)O)[C@@H](C)O)C(=O)N[C@@H](CCC(=O)O)C(=O)N[C@@H](Cc1ccccc1)C(=O)N[C@H](C(=O)N[C@@H](C)C(=O)N[C@@H](Cc1c[nH]c2ccccc12)C(=O)N[C@@H](CC(C)C)C(=O)N[C@@H](CCC(=O)O)C(=O)N[C@@H](C)C(=O)NCC(=O)NCC(=O)N1CCC[C@H]1C(=O)N[C@@H](CO)C(=O)N[C@@H](CO)C(=O)NCC(N)=O)C(C)C)C(=O)O)C(=O)O` [Compound 15] (HELM PEPTIDE1{H.[Aib].Q.G.T.F.T.S.D.Y.S.K.Y.L.D.E.R.A.A.K.E.F.V.A.W.L.E.A.G.G.P.S.S.G.[am]}|PEPTIDE2{[CCCCCCCCCCCCCCCC(=O)[*:2]].[gGlu].[gGlu]}$PEPTIDE1,PEPTIDE2,20:R3-3:R2$$$V2.0; N-terminus assumed), the EC50 was 0.148 nM.

Regarding `CC[C@H](C)[C@H](NC(=O)[C@H](Cc1ccccc1)NC(=O)[C@H](CCC(=O)O)NC(=O)[C@H](CCCCNC(=O)COCCOCCNC(=O)COCCOCCNC(=O)CC[C@H](NC(=O)CCCCCCCCCCCCCCCCC(=O)O)C(=O)O)NC(=O)[C@H](C)NC(=O)[C@H](C)NC(=O)[C@H](CCCNC(=N)N)NC(=O)[C@H](CCC(=O)O)NC(=O)[C@H](CC(=O)O)NC(=O)[C@H](CC(C)C)NC(=O)[C@H](Cc1ccc(O)cc1)NC(=O)[C@H](CCCCN)NC(=O)[C@H](CO)NC(=O)[C@H](Cc1ccc(O)cc1)NC(=O)[C@H](CC(=O)O)NC(=O)[C@H](CO)NC(=O)[C@@H](NC(=O)[C@H](Cc1ccccc1)NC(=O)[C@@H](NC(=O)CNC(=O)[C@H](CCC(N)=O)NC(=O)[C@H](CO)NC(=O)[C@@H](N)Cc1c[nH]cn1)[C@@H](C)O)[C@@H](C)O)C(=O)N[C@@H](C)C(=O)N[C@@H](Cc1c[nH]c2ccccc12)C(=O)N[C@@H](CC(C)C)C(=O)N[C@@H](CCC(=O)O)C(=O)NCC(=O)NCC(=O)N1CCC[C@H]1C(=O)N[C@@H](CO)C(=O)N[C@@H](CO)C(=O)NCC(N)=O` [Compound 38] (H-HSQGTFTSDYSKYLDERAAK([AEEA-AEEA-γGlu-C18 diacid])EFIAWLEGGPSSG-NH2; N-terminus assumed), the EC50 came to 0.102 nM.

Regarding `CC[C@H](C)[C@H](NC(=O)[C@H](Cc1ccccc1)NC(=O)[C@H](CCC(=O)O)NC(=O)[C@H](CCCCNC(=O)COCCOCCNC(=O)COCCOCCNC(=O)CC[C@H](NC(=O)CCCCCCCCCCCCCCCCC(=O)O)C(=O)O)NC(=O)[C@H](C)NC(=O)[C@H](CCCCN)NC(=O)[C@H](CCCNC(=N)N)NC(=O)[C@H](CCC(=O)O)NC(=O)[C@H](CCC(=O)O)NC(=O)[C@H](CC(C)C)NC(=O)[C@H](Cc1ccc(O)cc1)NC(=O)[C@H](CCCCN)NC(=O)[C@H](CO)NC(=O)[C@H](Cc1ccc(O)cc1)NC(=O)[C@H](CC(=O)O)NC(=O)[C@H](CO)NC(=O)[C@@H](NC(=O)[C@H](Cc1ccccc1)NC(=O)[C@@H](NC(=O)CNC(=O)[C@H](CCC(N)=O)NC(=O)C(C)(C)NC(=O)[C@@H](N)Cc1c[nH]cn1)[C@@H](C)O)[C@@H](C)O)C(=O)N[C@@H](C)C(=O)N[C@@H](Cc1c[nH]c2ccccc12)C(=O)N[C@@H](CC(C)C)C(=O)N[C@@H](CCC(=O)O)C(=O)N[C@@H](C)C(=O)NCC(=O)NCC(=O)N1CCC[C@H]1C(=O)N[C@@H](CO)C(=O)N[C@@H](CO)C(=O)NCC(N)=O` [Compound 44] (H-H[Aib]QGTFTSDYSKYLEERKAK([AEEA-AEEA-γGlu-C18 diacid])EFIAWLEAGGPSSG-NH2; N-terminus assumed), the EC50 stood at 0.219 nM.
